28 compounds from patent US10183938B2, “Geminal substituted quinuclidine amide compounds as agonists of α-7 nicotonic acetylcholine receptors” (AXOVANT SCIENCES GMBH, priority 2014, dated 2019) can be followed below.

Structures are written as SMILES. Structures can show the parent of a compound that is named as a salt.

The target of assay [1] is human 5-HT3 serotonin receptors (Homo sapiens (Human), UniProt P46098). Description: [3H]BRL 43694 competition binding. The settings on record: CHO cell membranes, [3H]BRL 43694, Cheng Prusoff; read-out: h-5HT3 Ki.
Sequence of human 5-HT3 serotonin receptors (P46098 24-478): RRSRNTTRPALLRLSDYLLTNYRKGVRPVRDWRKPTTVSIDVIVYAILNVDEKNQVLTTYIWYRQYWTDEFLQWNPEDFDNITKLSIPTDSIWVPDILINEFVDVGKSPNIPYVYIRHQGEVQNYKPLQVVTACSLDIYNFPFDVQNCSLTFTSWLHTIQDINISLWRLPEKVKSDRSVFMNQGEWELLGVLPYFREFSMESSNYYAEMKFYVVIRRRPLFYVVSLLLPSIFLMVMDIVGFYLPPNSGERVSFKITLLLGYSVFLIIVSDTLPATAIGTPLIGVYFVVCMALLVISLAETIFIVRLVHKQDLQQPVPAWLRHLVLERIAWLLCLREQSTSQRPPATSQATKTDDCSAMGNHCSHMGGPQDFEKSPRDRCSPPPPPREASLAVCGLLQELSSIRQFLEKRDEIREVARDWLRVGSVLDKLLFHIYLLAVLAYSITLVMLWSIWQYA
Assay [2] addresses human α7 nAChRs transiently expressed in Xenopus laevis oocytes (Homo sapiens (Human), UniProt P36544). The assay can be described thus: Oocyte electrophysiology screen (TEVC). The class given is cell-based. The settings on record: 0.01 mM test compound, peak current relative to 0.2 mM ACh. A digest of the protocol: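 Oocytes expressing human α7 were clamped at −80 mV by TEVC. After a 0.2 mM ACh control pulse, test compound was applied at 0.01 mM for 30 s. Agonist response is peak current as % of the ACh response, in triplicate.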

The term Ki denotes the equilibrium dissociation constant of an inhibitor or competing ligand from its target.

Sequence of human α7 nAChRs transiently expressed in Xenopus laevis oocytes (P36544 23-502 limits assumed): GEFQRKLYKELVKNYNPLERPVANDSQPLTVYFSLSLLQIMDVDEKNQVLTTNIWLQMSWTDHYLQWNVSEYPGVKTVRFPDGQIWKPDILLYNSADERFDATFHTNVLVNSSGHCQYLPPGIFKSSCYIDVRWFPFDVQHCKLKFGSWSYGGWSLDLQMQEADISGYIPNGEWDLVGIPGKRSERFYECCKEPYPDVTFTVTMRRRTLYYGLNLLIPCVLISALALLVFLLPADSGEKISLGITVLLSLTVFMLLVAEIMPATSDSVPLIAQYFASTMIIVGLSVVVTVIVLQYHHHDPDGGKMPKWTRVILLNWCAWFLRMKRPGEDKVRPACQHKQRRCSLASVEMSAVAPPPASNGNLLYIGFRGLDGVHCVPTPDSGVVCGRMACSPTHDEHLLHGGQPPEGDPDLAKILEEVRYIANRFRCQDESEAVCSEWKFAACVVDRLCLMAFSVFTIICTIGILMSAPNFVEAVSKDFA

As for `Cc1csc2ccc(C(=O)N[C@@H]3C4CCN(CC4)C34CC4)cc12` [(R)-77, (R)-3-methyl-N-(1′-azaspiro[cyclopropane-1,2′-bicyclo[2.2.2]octan]-3′-yl)benzo[b]thiophene-5-carboxamide hydrochloride], in assay [1], the Ki worked out at 660 nM. Further, in assay [2], the “% ACh @ 10 μM Oocyte” value worked out at 547 % ACh.
`Cc1csc2cc(C(=O)N[C@@H]3C4CCN(CC4)C34CC4)ccc12` [(R)-78, (R)-3-methyl-N-(1′-azaspiro[cyclopropane-1,2′-bicyclo[2.2.2]octan]-3′-yl)benzo[b]thiophene-6-carboxamide hydrochloride]: in assay [1], the Ki was found to be 2100 nM. For the same compound, in assay [2], the “% ACh @ 10 μM Oocyte” value came to 31 % ACh.
Consider `O=C(N[C@@H]1C2CCN(CC2)C12CC2)c1ccc2cc[nH]c2c1` [(R)-79, (R)—N-(1′-azaspiro[cyclopropane-1,2′-bicyclo[2.2.2]octan]-3′-yl)-1H-indole-6-carboxamide], for which, in assay [1], the Ki came to 750 nM. In assay [2], the “% ACh @ 10 μM Oocyte” value is reported as 758 % ACh.
The like results for `O=C(N[C@@H]1C2CCN(CC2)C12CC2)c1ccc2sccc2c1` [(R)-83, (R)—N-(1′-azaspiro[cyclopropane-1,2′-bicyclo[2.2.2]octan]-3′-yl)benzo[b]thiophene-5-carboxamide hydrochloride] were, in that order, 2400 nM and 558 % ACh.
The like results for `O=C(N[C@@H]1C2CCN(CC2)C12CC2)c1ccc2ccoc2c1` [(R)-84, (R)—N-(1′-azaspiro[cyclopropane-1,2′-bicyclo[2.2.2]octan]-3′-yl)benzofuran-6-carboxamide hydrochloride] were, in that order, 4700 nM and 341 % ACh.
For `Cc1nc2cc(C(=O)N[C@@H]3C4CCN(CC4)C34CC4)ccc2o1` [(R)-85, (R)-2-methyl-N-(1′-azaspiro[cyclopropane-1,2′-bicyclo[2.2.2]octan]-3′-yl)benzo[d]oxazole-5-carboxamide], the Ki in assay [1] is greater than 10000 nM. The “% ACh @ 10 μM Oocyte” value in assay [2] was found to be 188 % ACh.
Consider `Cc1nc2ccc(C(=O)N[C@@H]3C4CCN(CC4)C34CC4)cc2o1` [(R)-86, (R)-2-methyl-N-(1′-azaspiro[cyclopropane-1,2′-bicyclo[2.2.2]octan]-3′-yl)benzo[d]oxazole-6-carboxamide], for which, in assay [1], the Ki was greater than 10000 nM. For the same compound, in assay [2], the “% ACh @ 10 μM Oocyte” value is 67 % ACh.
Taken in the same sequence, the figures for `Cc1cc2cc(C(=O)N[C@@H]3C4CCN(CC4)C34CC4)ccc2o1` [(R)-91, (R)-2-methyl-N-(1′-azaspiro[cyclopropane-1,2′-bicyclo[2.2.2]octan]-3′-yl)benzofuran-5-carboxamide hydrochloride] were greater than 10000 nM and 653 % ACh.
The like results for `O=C(N[C@@H]1C2CCN(CC2)C12CC2)c1ccc2oc(Cl)cc2c1` [(R)-92, (R)-2-chloro-N-(1′-azaspiro[cyclopropane-1,2′-bicyclo[2.2.2]octan]-3′-yl)benzofuran-5-carboxamide hydrochloride] were, in that order, greater than 10000 nM and 532 % ACh.
Consider `O=C(N[C@@H]1C2CCN(CC2)C12CC2)c1ccc2occ(Cl)c2c1` [(R)-94, (R)-3-chloro-N-(1′-azaspiro[cyclopropane-1,2′-bicyclo[2.2.2]octan]-3′-yl)benzofuran-5-carboxamide hydrochloride], for which, in assay [1], the Ki came out at 1600 nM. The “% ACh @ 10 μM Oocyte” value in assay [2] is 812 % ACh.
The like results for `Cn1cnc2cc(C(=O)N[C@@H]3C4CCN(CC4)C34CC4)ccc21` [(R)-95, (R)-1-methyl-N-(1′-azaspiro[cyclopropane-1,2′-bicyclo[2.2.2]octan]-3′-yl)-1H-benzo[d]imidazole-5-carboxamide hydrochloride] were, in that order, greater than 10000 nM and 0 % ACh.
On to `O=C(N[C@@H]1C2CCN(CC2)C12CC2)c1cc2ccsc2cn1` [(R)-97, (R)—N-(1′-azaspiro[cyclopropane-1,2′-bicyclo[2.2.2]octan]-3′-yl)thieno[2,3-c]pyridine-5-carboxamide hydrochloride], for which, in assay [1], the Ki stood at 430 nM. Further, the “% ACh @ 10 μM Oocyte” value in assay [2] is 816 % ACh.
Taken in the same sequence, the figures for `O=C(N[C@@H]1C2CCN(CC2)C12CC2)c1cc2ccc(N3CCOCC3)cc2s1` [(R)-99, (R)-6-morpholino-N-(1′-azaspiro[cyclopropane-1,2′-bicyclo[2.2.2]octan]-3′-yl)benzo[b]thiophene-2-carboxamide hydrochloride] were greater than 10000 nM and 1 % ACh.
On to `O=C(N[C@@H]1C2CCN(CC2)C12CC2)c1cc2ccc(Br)cc2s1` [(R)-101, (R)-6-bromo-N-(1′-azaspiro[cyclopropane-1,2′-bicyclo[2.2.2]octan]-3′-yl)benzo[b]thiophene-2-carboxamide hydrochloride], for which, in assay [1], the Ki was greater than 10000 nM. Moreover, the “% ACh @ 10 μM Oocyte” value in assay [2] was found to be 412 % ACh.
The like results for `O=C(N[C@@H]1C2CCN(CC2)C12CC2)c1cc2ccc(C3CCOCC3)cc2s1` [(R)-105, (R)—N-(1′-azaspiro[cyclopropane-1,2′-bicyclo[2.2.2]octan]-3′-yl)-6-(tetrahydro-2H-pyran-4-yl)benzo[b]thiophene-2-carboxamide hydrochloride] were, in that order, greater than 10000 nM and 2 % ACh.
As to `Cc1ccc2cc(C(=O)N[C@@H]3C4CCN(CC4)C34CC4)sc2c1F` [(R)-106, (R)-7-fluoro-6-methyl-N-(1′-azaspiro[cyclopropane-1,2′-bicyclo[2.2.2]octan]-3′-yl)benzo[b]thiophene-2-carboxamide hydrochloride], the Ki in assay [1] is greater than 10000 nM. Besides, the “% ACh @ 10 μM Oocyte” value in assay [2] worked out at 572 % ACh.
As to `O=C(N[C@@H]1C2CCN(CC2)C12CC2)c1ccc2c(c1)OCCO2` [(R)-107, (R)—N-(1′-azaspiro[cyclopropane-1,2′-bicyclo[2.2.2]octan]-3′-yl)-2,3-dihydrobenzo[b][1,4]dioxine-6-carboxamide hydrochloride], the Ki in assay [1] is greater than 10000 nM. In assay [2], the “% ACh @ 10 μM Oocyte” value was 414 % ACh.
The like results for `CC1(C)[C@H](NC(=O)c2cc3ccc(Cl)c(Cl)c3s2)C2CCN1CC2` [(R)-109, (R)-6,7-dichloro-N-(2,2-dimethylquinuclidin-3-yl)benzo[b]thiophene-2-carboxamide hydrochloride] were, in that order, 4000 nM and 432 % ACh.
The like results for `CC1(C)[C@H](NC(=O)c2cc3ccc(Cl)c(F)c3s2)C2CCN1CC2` [(R)-110, (R)-6-chloro-N-(2,2-dimethylquinuclidin-3-yl)-7-fluorobenzo[b]thiophene-2-carboxamide hydrochloride] were, in that order, greater than 10000 nM and 444 % ACh.
As for `CC1(C)[C@H](NC(=O)c2cc3ccc(F)c(Cl)c3s2)C2CCN1CC2` [(R)-114, (R)-7-chloro-N-(2,2-dimethylquinuclidin-3-yl)-6-fluorobenzo[b]thiophene-2-carboxamide hydrochloride], the Ki in assay [1] was found to be 620 nM. Also, the “% ACh @ 10 μM Oocyte” value in assay [2] is 703 % ACh.
The like results for `COc1cccc2cc(C(=O)N[C@@H]3C4CCN(CC4)C3(C)C)sc12` [(R)-116, (R)—N-(2,2-dimethylquinuclidin-3-yl)-7-methoxybenzo[b]thiophene-2-carboxamide hydrochloride] were, in that order, 600 nM and 963 % ACh.
The like results for `O=C(N[C@@H]1C2CCN(CC2)C12CC2)c1cc2ccc(Cl)c(Cl)c2s1` [(R)-150, (R)-6,7-dichloro-N-(1′-azaspiro[cyclopropane-1,2′-bicyclo[2.2.2]octan]-3′-yl)benzo[b]thiophene-2-carboxamide hydrochloride] were, in that order, 2200 nM and 443 % ACh.
Taken in the same sequence, the figures for `O=C(N[C@@H]1C2CCN(CC2)C12CC2)c1cc2ccc(Cl)c(F)c2s1` [(R)-151, (R)-6-chloro-7-fluoro-N-(1′-azaspiro[cyclopropane-1,2′-bicyclo[2.2.2]octan]-3′-yl)benzo[b]thiophene-2-carboxamide hydrochloride] were greater than 10000 nM and 409 % ACh.
As to `COc1ccc2cc(C(=O)N[C@@H]3C4CCN(CC4)C34CC4)sc2c1F` [(R)-155, (R)-7-fluoro-6-methoxy-N-(1′-azaspiro[cyclopropane-1,2′-bicyclo[2.2.2]octan]-3′-yl)benzo[b]thiophene-2-carboxamide hydrochloride], the Ki in assay [1] is greater than 10000 nM. Besides, in assay [2], the “% ACh @ 10 μM Oocyte” value worked out at 513 % ACh.
For `Cc1ccc2cc(C(=O)N[C@@H]3C4CCN(CC4)C34CC4)sc2c1Cl` [(R)-156, (R)-7-chloro-6-methyl-N-(1′-azaspiro[cyclopropane-1,2′-bicyclo[2.2.2]octan]-3′-yl)benzo[b]thiophene-2-carboxamide hydrochloride], in assay [1], the Ki amounted to 300 nM. Also, the “% ACh @ 10 μM Oocyte” value in assay [2] is listed as 403 % ACh.
Taken in the same sequence, the figures for `O=C(N[C@@H]1C2CCN(CC2)C12CC2)c1cc2ccc(F)c(Cl)c2s1` [(R)-158, (R)-7-chloro-6-fluoro-N-(1′-azaspiro[cyclopropane-1,2′-bicyclo[2.2.2]octan]-3′-yl)benzo[b]thiophene-2-carboxamide hydrochloride] were 370 nM and 180 % ACh.
Take `O=C(N[C@@H]1C2CCN(CC2)C12CC2)c1cc2ccc(C3CC3)c(F)c2s1` [(R)-159, (R)-6-cyclopropyl-7-fluoro-N-(1′-azaspiro[cyclopropane-1,2′-bicyclo[2.2.2]octan]-3′-yl)benzo[b]thiophene-2-carboxamide hydrochloride]: the Ki in assay [1] was greater than 10000 nM. In addition, in assay [2], the “% ACh @ 10 μM Oocyte” value is 24 % ACh.
The like results for `COc1cccc2cc(C(=O)N[C@@H]3C4CCN(CC4)C34CC4)sc12` [(R)-161, (R)-7-methoxy-N-(1′-azaspiro[cyclopropane-1,2′-bicyclo[2.2.2]octan]-3′-yl)benzo[b]thiophene-2-carboxamide hydrochloride] were, in that order, 660 nM and 493 % ACh.
